Experimental data taken from patent US9920017B2, “Heterocyclic compounds as pesticides” (BAYER CROPSCIENCE AKTIENGESELLSCHAFT, priority 2014, dated 2018).
Where two headings read alike, the source gives them in different places.

Assays:
Boophilus microplus = Boophilus microplus injection test; assay type: in vivo; details: 20 μg/animal injected into engorged adult female cattle ticks; assessed after 7 days by laying of fertile eggs
Method: Boophilus microplus—Injection Test
(§1) Solvent: dimethyl sulphoxide
To produce an appropriate active ingredient formulation, 10 mg of active ingredient are mixed with 0.5 ml of solvent and the concentrate is diluted with solvent to the desired concentration.
1 μl of the active ingredient solution is injected into the abdomen of 5 engorged adult female cattle ticks (Boophilus microplus). The animals are transferred into dishes and kept in a climate-controlled room.
Efficacy is assessed after 7 days by laying of fertile eggs. Eggs which are not visibly fertile are stored in a climate-controlled cabinet for about another 42 days until the larvae hatch. An efficacy of 100% means that none of the ticks has laid any fertile eggs; 0% means that all the eggs are fertile.

Meloidogyne incognita = Meloidogyne incognita test (MELGIN); assay type: in vivo; details: 20 ppm; lettuce; after 14 days
Method: Meloidogyne incognita Test (MELGIN) Solvent: 125.0 parts by weight of acetone To produce a suitable active ingredient formulation, 1 part by weight of active ingredient is mixed with the stated amount of solvent and the concentrate is diluted with water to the desired concentration. Vessels are filled with sand, active ingredient solution, an egg/larvae suspension of the southern root-knot nematode (Meloidogyne incognita) and lettuce seeds. The lettuce seeds germinate and the plants develop. The galls develop on the roots. After 14 days, the nematicidal efficacy in % is determined by the formation of galls. 100% means that no galls were found; 0% means that the number of galls on the treated plants corresponds to the untreated control.

[1] = Determination of log P values by HPLC (reversed-phase C18); assay type: physicochemical; details: for chromatographic logP: reversed-phase C18 HPLC column
Method: 1) Description of Method for Determination of the Log P Values ([…]) The log P values given in the table were determined in accordance with EEC Directive 79/831 Annex V.A8 by HPLC (High Performance Liquid Chromatography) using a reversed-phase column (C 18). Temperature: 55° C. […] Gradient: from 10% eluent A/90% eluent B to 95% eluent A/5% eluent B in 4.25 min. Calibration was effected with unbranched alkan-2-ones (having 3 to 16 carbon atoms) with known log P values (log P values determined on the basis of the retention times by linear interpolation between two successive alkanones). The lambda max values were determined in the maxima of the chromatographic signals using the UV spectra from 200 nm to 400 nm.

Musca domestica = Musca domestica test; assay type: in vivo; details: 100 ppm; adult houseflies; after 2 days
Method: Musca domestica Test Solvent: dimethyl sulphoxide To produce an appropriate active ingredient formulation, 10 mg of active ingredient are mixed with 0.5 ml of dimethyl sulphoxide, and the concentrate is diluted with water to the desired concentration. Vessels containing a sponge treated with sugar solution and the active ingredient formulation of the desired concentration are populated with 10 adult houseflies (Musca domestica). After 2 days, the kill in % is determined 100% means that all of the flies have been killed; 0% means that none of the flies have been killed.

Lucilia cuprina = Lucilia cuprina test; assay type: in vivo; details: 100 ppm; L1 larvae; after 2 days
Method: Lucilia cuprina Test Solvent: dimethyl sulphoxide To produce an appropriate active ingredient formulation, 10 mg of active ingredient are mixed with 0.5 ml of dimethyl sulphoxide, and the concentrate is diluted with water to the desired concentration. About 20 L1 larvae of the Australian sheep blowfly (Lucilia cuprina) are transferred into a test vessel containing minced horsemeat and the active ingredient preparation of the desired concentration. After 2 days, the kill in % is determined 100% means that all the larvae have been killed; 0% means that no larvae have been killed.

Phaedon cochleariae = Phaedon cochleariae spray test (PHAECO); assay type: in vivo; details: 500 g/ha; Chinese cabbage leaf discs, larvae; after 7 days
Method: Phaedon cochleariae—Spray Test (PHAECO)
(§2) Solvent: 78.0 parts by weight of acetone • • 1.5 parts by weight of dimethylformamide
(§3) Emulsifier: alkylaryl polyglycol ether
(§4) To produce an appropriate active ingredient formulation, 1 part by weight of active ingredient is dissolved using the stated parts by weight of solvent and made up with water containing an emulsifier concentration of 1000 ppm until the desired concentration is attained. To produce further test concentrations, the preparation is diluted with emulsifier-containing water.
Discs of Chinese cabbage leaves (Brassica pekinensis) are sprayed with an active ingredient formulation of the desired concentration and, after drying, populated with larvae of the mustard beetle (Phaedon cochleariae).
After 7 days, the efficacy in % is determined 100% means that all the beetle larvae have been killed; 0% means that no beetle larvae have been killed.

Cooperia curticei = Cooperia curticei test; assay type: in vivo; details: 20 ppm; nematode larvae; after 5 days
Method: as §1
To produce an appropriate active ingredient formulation, 10 mg of active ingredient are mixed with 0.5 ml of dimethyl sulphoxide and the concentrate is diluted with “Ringer's solution” to the desired concentration.
Vessels containing the active ingredient formulation of the desired concentration are populated with about 40 nematode larvae (Cooperia curticei).
After 5 days, the kill in % is determined 100% means that all the larvae have been killed; 0% means that none of the larvae have been killed.

Haemonchus contortus = Haemonchus contortus test; assay type: in vivo; details: 20 ppm; larvae; after 5 days
Method: Haemonchus contortus Test Solvent: dimethyl sulphoxide To produce an appropriate active ingredient formulation, 10 mg of active ingredient are mixed with 0.5 ml of dimethyl sulphoxide and the concentrate is diluted with “Ringer's solution” to the desired concentration. Vessels containing the active ingredient formulation of the desired concentration are populated with about 40 larvae of the red stomach worm (Haemonchus contortus). After 5 days, the kill in % is determined 100% means that all the larvae have been killed; 0% means that none of the larvae have been killed.

Myzus persicae = Myzus persicae spray test; assay type: in vivo; details: 500 g/ha; Chinese cabbage leaf discs; after 6 days
Method: Myzus persicae—Spray Test
Solvent: 78 parts by weight of acetone • • 1.5 parts by weight of dimethylformamide
as §3, §4
Discs of Chinese cabbage leaves (Brassica pekinensis) infested by all stages of the green peach aphid (Myzus persicae) are sprayed with an active ingredient formulation of the desired concentration.
After 6 days, the efficacy in % is determined 100% means that all the aphids have been killed; 0% means that no aphids have been killed.

Tetranychus urticae = Tetranychus urticae spray test, OP-resistant; assay type: in vivo; details: 500 g/ha, bean leaf discs, after 6 days
Method: Tetranychus urticae—Spray Test, OP-Resistant
as §2, §3, §4
Discs of bean leaves (Phaseolus vulgaris) infested by all stages of the greenhouse red spider mite (Tetranychus urticae) are sprayed with an active ingredient formulation of the desired concentration.
After 6 days, the efficacy in % is determined. 100% means that all the spider mites have been killed; 0% means that no spider mites have been killed.

[2] = HPLC, reversed-phase C18, 55° C., final compounds table
[3] = pH 3.4, HPLC-MS, preparation examples, read-out: log P
[4] = HPLC, reversed-phase C18, 55° C., final compounds table, read-out: log P neutral

Row | log P neutral [1, 2] | Structure (SMILES) | efficacy (Boophilus microplus) | nematicidal efficacy (formation of galls) (Meloidogyne incognita) | efficacy (kill) (Cooperia curticei) | further results
1 | 2.51 | O=C(Nc1ncn(-c2ccccc2OC(F)(F)F)n1)c1ccccc1C(F)(F)F [Compound I-1-10] | 100% | 100% |  | 
2 |  | O=C(Nc1ncn(-c2c(F)cccc2F)n1)c1ccccc1C(F)(F)F [Compound I-1-11, 2-Trifluoromethyl-N-[1-(2,6-difluorophenyl)-1H-1,2,4-triazol-3-yl]benzamide] | 100% | 90% |  | efficacy (kill) (Musca domestica): 80%; efficacy (kill) (Lucilia cuprina): 100%; chromatographic logP [1, 3]: 1.97; chromatographic logP [1, 4]: 1.97
3 | 1.92 | O=C(Nc1ncn(-c2c(F)cccc2F)n1)c1ccccc1C(F)F [Compound I-1-18] | 80% | 100% |  | efficacy (Phaedon cochleariae): 83%
4 | 1.89 | O=C(Nc1ncn(-c2c(F)cccc2F)n1)c1ccccc1I [Compound I-1-21] |  | 100% | 100% | efficacy (kill) (Haemonchus contortus): 80%
5 | 1.73 | O=C(Nc1ncn(-c2c(F)cccc2F)n1)c1nccnc1C(F)(F)F [Compound I-1-24] | 100% | 100% |  | efficacy (kill) (Musca domestica): 80%; efficacy (kill) (Lucilia cuprina): 100%
6 |  | O=C(Nc1ncn(-c2c(F)cccc2Br)n1)c1ccccc1C(F)(F)F [Compound I-1-30, 2-Trifluoromethyl-N-[1-(2-bromo-6-fluorophenyl)-1H-1,2,4-triazol-3-yl]benzamide] | 100% | 100% | 80% | chromatographic logP ([1]; HPLC-MS, preparation examples, read-out: log P (neutral)): 2.15
7 | 2.10 | O=C(Nc1ncn(-c2c(F)cccc2Cl)n1)c1ccccc1C(F)(F)F [Compound I-1-33] | 100% | 100% | 100% | efficacy (Phaedon cochleariae): 100%
8 | 2.26 | O=C(Nc1ncn(-c2c(Cl)cccc2Cl)n1)c1ccccc1C(F)(F)F [Compound I-1-44] | 90% | 100% |  | 
9 | 2.10 | O=C(Nc1ncn(-c2c(F)ccc(F)c2F)n1)c1ccccc1C(F)(F)F [Compound I-1-57] | 90% | 100% | 100% | 
10 | 2.03 | O=C(Nc1ncn(-c2c(F)ccc(F)c2F)n1)c1ccccc1I [Compound I-1-59] | 100% | 100% | 90% | 
11 | 2.49 | O=C(Nc1ncn(-c2c(F)c(F)c(F)c(F)c2F)n1)c1ccccc1C(F)(F)F [Compound I-1-65] | 100% |  |  | 
12 | 2.15 | O=C(Nc1ncn(-c2ccccc2Br)n1)c1ccccc1C(F)(F)F [Compound I-1-70] |  | 90% | 80% | 
13 | 2.09 | O=C(Nc1ncn(-c2ccccc2Br)n1)c1ccccc1I [Compound I-1-72] |  |  |  | efficacy (Myzus persicae): 90%
14 | 2.21 | O=C(Nc1ncn(-c2c(F)cccc2I)n1)c1ccccc1C(F)(F)F [Compound I-1-83] |  | 100% | 80% | 
15 | 2.15 | O=C(Nc1ncn(-c2c(F)cccc2I)n1)c1ccccc1I [Compound I-1-85] |  | 100% | 80% | 
16 | 2.31 | Cc1cc(C)c([S+]([O-])CC(F)(F)F)cc1-n1cnc(NC(=O)c2ccccc2C(F)(F)F)n1 (stereo not drawn) [Compound I-1-90] |  |  |  | efficacy (Tetranychus urticae): 95%
17 | 1.82 | O=C(Nc1ncn(-c2c(F)cccc2F)n1)c1ncccc1C(F)(F)F [Compound I-1-91] |  | 100% |  | efficacy (Phaedon cochleariae): 100%
18 |  | O=C(Nc1nnn(-c2ccccc2)n1)c1ccccc1C(F)(F)F [Compound I-2-3, N-(2-Phenyl-2H-tetrazol-5-yl)-2-(trifluoromethyl)benzamide] |  |  |  | efficacy (Phaedon cochleariae): 100%; chromatographic logP [1, 3]: 2.57; chromatographic logP [1, 4]: 2.57
